# Laboratory results taken from paper PMC12445744, “Molecular docking to homology models of human and Trypanosoma brucei ERK8 that identified ortholog-specific inhibitors” (PLOS Neglected Tropical Diseases, 2025).
# “And” between values parts separate entries of the source, which are not always exact repeats. Equal entries are not always repeated.
# Biological target: T1, TbERK8 (Trypanosoma brucei brucei, UniProt Q38B88)
# T1 sequence (Q38B88 1-442): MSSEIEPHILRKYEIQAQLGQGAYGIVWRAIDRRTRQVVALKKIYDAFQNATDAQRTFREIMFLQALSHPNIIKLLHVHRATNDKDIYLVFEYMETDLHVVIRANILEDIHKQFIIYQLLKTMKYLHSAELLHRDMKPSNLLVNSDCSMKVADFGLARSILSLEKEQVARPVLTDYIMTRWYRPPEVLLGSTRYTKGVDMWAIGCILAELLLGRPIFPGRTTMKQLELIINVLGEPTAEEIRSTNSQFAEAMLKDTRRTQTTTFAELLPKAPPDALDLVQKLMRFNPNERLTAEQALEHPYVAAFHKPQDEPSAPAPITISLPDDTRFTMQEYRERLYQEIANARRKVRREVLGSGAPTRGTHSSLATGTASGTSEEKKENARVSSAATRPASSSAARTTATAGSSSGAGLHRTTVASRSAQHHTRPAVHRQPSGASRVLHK
# Assay: Luciferase-based kinase inhibition assay (ATP luminescence), GST-tagged TbERK8 with MBP substrate
# Format: biochemical
# Design: raw luminescence, TbERK8: unit of the concentration uncertain
# Conditions: for raw luminescence, TbERK8: sheet Kinase_glo_080924_IFPS (2), replicate wells, listed as Ida
# Description: Escherichia coli strain Rosetta 2 (DE3) (Cat# 71397, MilliporeSigma, Burlington, MA) was transformed with the plasmid pGEX2T expressing the full-length hERK8 coding region or pGSTAg expressing the full-length TbERK8 coding region. One liter of Terrific Broth media containing 100 μg/ml Ampicillin and 30 μg/ml chloramphenicol in 2 L baffled flasks was inoculated with 25 mL from an overnight culture of Rosetta 2 strains harboring either the pGEX2T-hERK8 or pGSTAg-TbERK8 plasmid. Two baffled flasks were inoculated with each overnight strain and incubated and shaken at 175 RPM in a New Brunswick Innova 44R Incubator Shaker (Fischer Scientific, Pittsburgh, PA) at 37 °C until the cultures reached an O.D.600 of 0.94. Once the cultures in the flask reached the target O.D.600, the flasks were cooled to 4 °C in an ice water bath. The cooled cultures were induced by adding isopropyl β-D-1-thiogalactopyranoside (IPTG) to a final concentration of 0.1 mM and shaken at 16 °C for 16 hours at 175 RPM in a New Brunswick Innova 44R Incubator Shaker (Fischer Scientific, Pittsburgh, PA). On the next day, the cultures were pelleted by centrifugation at 9000 xg in a JLA 10.500 rotor (Beckman Coulter; Brea, CA), and the media was decanted. The pellet was flash-frozen in liquid nitrogen and then thawed on ice. The thawed pellet was resuspended in lysis buffer (25 mM Tris, 75 mM NaCl, 0.5% TritonX-100 and 0.5% Nonidet P-40, 1 mM phenylmethanesulfonyl fluoride, 1 mM benzamidine⋅HCl) and lysed using a microfluidizer M-110P from Microfluidics (Westwood, MA). The crude lysates were clarified by centrifugation at 140,000 xg in a 45Ti rotor (Beckman Coulter, Brea, CA) for 30 min at 4°C. The clarified lysate was loaded by gravity to a 3 mL glutathione agarose resin column (Cat# G-250–10, GOLDBIO, St. Louis, MO) formed in a 1.5 × 20 cm glass chromatography column (Cat# 7371522, Bio-Rad, Hercules, CA). The column was washed with 30 mL of PBS (pH 7.4) containing 1 mM DTT. Elution buffer (50 mM Tris buffer pH 8.0 containing 10 mM reduced glutathione and 1 mM DTT was added to the washed column), and 1 mL fractions were collected by gravity and examined by SDS-PAGE stained by Coomassie dye. Peak fractions pooled from the elution were dialyzed (4x 1:500 dilutions) in kinase buffer (30 mM Tris, pH 7.4, 10 mM MgCl2, 1 mM DTT, 5% glycerol).
# We performed kinase assays in buffer K (30 mM Tris pH 7.4, 10 mM MgCl2, 1 mM DTT, 5% glycerol, 50 μM ATP, and 0.1 mg/mL BSA) at 30°C for 30 min in 30 μL reactions. GST-tagged HsERK8 and TbERK8 were tested using myelin basic protein (MBP) (Cat# 13–110, Millipore, Darmstadt, Germany) as the substrate at increasing concentrations to determine the optimal activity for the assay. ATP consumption was determined by adding equal volumes of the kinase assay reagent (Promega, Cat# V5601, Madison, WI) following the manufacturer’s protocol. Luminescence was measured using the microplate reader (SpectraMax L, Molecular Devices, Sunnyvale, CA).
# These compounds were screened for kinase inhibition utilizing a luciferase-based assay. Briefly, the kinases were tested using MBP as the substrate at a 14-fold molar excess in 384-well flat-bottom white plates (BRANDTECH Scientific, Cat# 781681, Essex, CT). These compounds were tested at concentrations ranging from […] to 150 nM. The kinases plus MBP substrate reactions were incubated with each inhibitor for 30 minutes at 30°C. Equal volumes of kinase assay mix Promega (Cat# V5601, Madison, WI) were added to the kinase/inhibitor reaction after 30 minutes, following the manufacturer’s protocol. ATP luminescence was measured using a microplate reader (SpectraMax L, Molecular Devices, Sunnyvale, CA). IC50 values were calculated from assays done in triplicate by fitting the data using Prism 8.1.1 (GraphPad).
compound,measurement,setting,value
CC(=O)[C@]1(O)Cc2c(O)c3c(c(O)c2[C@@H](O[C@H]2C[C@H](N)[C@H](O)[C@H](C)O2)C1)C(=O)c1ccccc1C3=O [Idarubicin],"raw luminescence, TbERK8",0.00015 (unit uncertain) compound,2715.27 RLU and 2728.74 RLU and 2394.11 RLU
same,"raw luminescence, TbERK8",0.00061 (unit uncertain) compound,1071.28 RLU and 918.564 RLU and 956.744 RLU
same,"raw luminescence, TbERK8",0.00244 (unit uncertain) compound,1109.46 RLU and 1118.45 RLU and 925.302 RLU
same,"raw luminescence, TbERK8",0.00977 (unit uncertain) compound,992.678 RLU and 972.465 RLU and 952.252 RLU
same,"raw luminescence, TbERK8",0.03906 (unit uncertain) compound,1019.63 RLU and 976.957 RLU and 1073.53 RLU
same,"raw luminescence, TbERK8",0.15625 (unit uncertain) compound,1318.33 RLU and 1147.64 RLU and 1078.02 RLU
same,"raw luminescence, TbERK8",0.62500 (unit uncertain) compound,2223.42 RLU and 1980.86 RLU and 1909 RLU
same,"raw luminescence, TbERK8",2.50000 (unit uncertain) compound,2212.19 RLU and 2209.94 RLU and 2311.01 RLU
same,"raw luminescence, TbERK8","10.00000 (unit uncertain) compound, signal = ATP left",619.862 RLU and 786.057 RLU and 752.369 RLU
same,inhibitory effect on kinase activity of TbERK8,concentrations below 4.0 x10^-5 M (above this the red compound blocked luminescence),no detectible (n/d) inhibitory effect
